# Peptide text beside a SMILES is read from it.
# How the values were obtained:
# MRSA (NCTC 12493) = type: cell-based, methicillin-resistant Staphylococcus aureus; conditions: for MIC: MHB, 5 × 10^5 CFU/mL, overnight; for MBC: clear wells spotted onto MHA
# Experimental: (§1) The antimicrobial efficacy screening of the purified peptides was performed by MIC/MBC experiments on the following six different bacteria and an opportunistic pathogenic yeast: E. coli (ATCC 8739), Klebsiella pneumoniae (K. pneumoniae) (ATCC 43816), Pseudomonas aeruginosa (P. aeruginosa) (ATCC 9027), Staphylococcus aureus (S. aureus) (ATCC 6538), methicillin-resistant Staphylococcus aureus (MRSA) (NCTC 12493), Enterococcus faecium (E. faecium) (NCTC 12697), and Candida albicans (C. albicans) (ATCC 10231). First, frozen beads of respective cultures were inoculated into Mueller Hinton broth (MHB) medium and incubated overnight at 37 °C. Next, 500 µL of respective suspensions were added to the fresh MHB medium for incubation, and then sub-cultured until reaching the log growth phase, which was determined by measuring the absorbance of cultures at a wavelength of 550 nm. Then, the subcultures were diluted to 5 × 10^5 CFU/mL and 99 µL of suspension was removed and mixed with 1 µL of peptide solution at different concentrations (double-dilution of 12,800 to 100 µM) in a 96-well plate. The blank control, vehicle control, growth control, and the positive control groups were prepared according to the conditions mentioned previously. The peptide solutions were added to the plate and mixed with the diluted microbial suspensions. After overnight incubation, the absorbance at 550 nm of each well was measured with a Synergy HT plate reader (Biotech, Minneapolis, MN, USA). Subsequently, the samples in each clear well were spotted onto Mueller Hinton agar (MHA) plates for the MBC assays of the tested peptides.
# C. albicans (ATCC 10231) = type: cell-based, Candida albicans; conditions: for MIC: MHB, 5 × 10^5 CFU/mL, overnight; for MBC: clear wells spotted onto MHA
# Experimental: as §1
# E. coli = assay: Salt sensitivity assay (MIC in the presence of salts); type: cell-based, Escherichia coli; conditions: for MIC in the presence of NH4Cl: MHB + 6 μM NH4Cl; for MIC in the presence of NH4Cl / MIC in the presence of KCl / MIC in the presence of NaCl / MIC in the presence of PBS: 18–20 h; for MIC in the presence of MgCl2: MHB + 1 mM MgCl2, 18–20 h; for MIC in the presence of CaCl2: MHB + 2.5 mM CaCl2, 18–20 h; for MIC in the presence of FeCl3: MHB + 4 mM FeCl3, 18–20 h; for MIC in the presence of KCl: MHB + 4.5 mM KCl; for MIC in the presence of ZnCl2: MHB + 8 mM ZnCl2, 18–20 h; for MIC in the presence of NaCl: MHB + 150 mM NaCl; for MIC in the presence of PBS: MHB, PBS (no added salt), 37 °C
# Experimental: To determine the salt sensitivity of peptides, E. coli was used to detect the changes in MIC values of peptides under different salt conditions. The bacterial culture method used was similar to the MIC experimental method described earlier. Different concentrations of salts (150 mM NaCl, 4.5 mM KCl, 6 μM NH4Cl, 1 mM MgCl2, 1 mM MgCl2, 8 mM ZnCl2, 2.5 mM CaCl2, 4 mM FeCl3) were added to the MHB to examine the effects of each salt on the anti-E. coli activities of the peptides, as described in a previous study. Then, the bacterial dilution with salt was mixed well with peptides of different concentrations, similar to the MIC/MBC experiments, and cultured at 37 °C. After 18–20 h of incubation, the absorbance of each well was measured at 550 nm using the Synergy HT plate reader.
# [1] = test system: H157 human lung cancer cells; assay: MTT cell antiproliferation assay; type: cell-based; conditions: 24 h of treatment, serum free medium, 10^−9–10^−4 M
# Experimental: (§2) The antiproliferative activities of the synthesized peptides were assessed on six human cancer cell lines (PC-3, H157, H460, H838, MCF-7, U251MG) and two human normal cell lines (HMEC-1 and MRC-5) using the MTT cell viability assay. Human lung cancer cells (H838, H157, and H460) and human prostate cancer cells (PC-3) were cultured in complete growth medium (CGM) (Roswell Park Memorial Institute (RPMI) 1640 Medium (Gibco, Paisley, UK): Fetal bovine serum (FBS) (Gibco, Campinas, Brazil): Penicillin-streptomycin solution (PS) (Gibco, Grand Island, NY, USA) 89/10/1 v/v/v). Human glioblastoma astrocytoma (U251MG) and human breast cancer cell (MCF-7) were cultured in complete growth medium (Dulbecco’s Modified Eagle medium (DMEM) (Gibco, Paisley, UK): FBS: PS 89/10/1 v/v/v). Human microvascular endothelial cells (HMEC-1) and human pulmonary fibroblast cells (MRC-5) were cultured in MCDB131 medium (supplemented with 10% FBS, 1% PS, 10 ng/mL epidermal growth factor, 1 µg/mL hydrocortisone, and 10 mM glutamine) and Eagle’s Minimal Essential Medium (EMEM) (supplemented with 10% FBS and 1% PS), respectively. Cell suspension, containing 8 × 10^3 cells per 100 µL, was first added to 96-well plates for overnight incubation. Then, the adherent cells in the 96-well plates were subject to cell starvation using the serum free medium treatment for at least 4 h to ensure that the cells were all in the same growth cycle. The peptide solutions, with final concentrations of 10^−9–10^−4 M, were prepared with serum free medium and added onto the plate. In addition, Triton X-100 (0.1%) (Sigma-Aldrich, St. Louis, MO, USA) was used as a positive control. After 24 h of administration, the MTT solution was added to the plate and incubated for 2 h. Then, the supernatant was discarded and DMSO was added to dissolve the purple formazan crystals. The absorbance was measured in all wells using the Synergy HT plate reader at a wavelength of 570 nm.
# [2] = test system: H460 human lung cancer cells; assay: MTT cell antiproliferation assay; type: cell-based; conditions: 24 h of treatment, serum free medium, 10^−9–10^−4 M
# Experimental: as §2
# [3] = test system: H838 human lung cancer cells; assay: MTT cell antiproliferation assay; type: cell-based; conditions: 24 h of treatment, serum free medium, 10^−9–10^−4 M
# Experimental: as §2
# [4] = test system: HMEC-1 human microvascular endothelial cells; assay: MTT cell antiproliferation assay; type: cell-based; conditions: HMEC-1 normal cells, 24 h of treatment, 10^−9–10^−4 M
# Experimental: as §2
# [5] = test system: MRC-5 human pulmonary fibroblast cells; assay: MTT cell antiproliferation assay; type: cell-based; conditions: MRC-5 normal cells, 24 h of treatment, 10^−9–10^−4 M
# Experimental: as §2
# [6] = test system: PC-3 human prostate cancer cells; assay: MTT cell antiproliferation assay; type: cell-based; conditions: PC-3, MTT, 24 h of treatment, serum free medium, 10^−9–10^−4 M
# Experimental: as §2
SMILES,MIC (MRSA (NCTC 12493)),MBC (MRSA (NCTC 12493)),MIC (C. albicans (ATCC 10231)),MBC (C. albicans (ATCC 10231)),MIC in the presence of NH4Cl (E. coli),MIC in the presence of MgCl2 (E. coli),MIC in the presence of CaCl2 (E. coli),MIC in the presence of FeCl3 (E. coli),MIC in the presence of KCl (E. coli),MIC in the presence of ZnCl2 (E. coli),MIC in the presence of NaCl (E. coli),MIC in the presence of PBS (E. coli),IC50 [1],IC50 [2],IC50 [3],IC50 [4],IC50 [5],IC50 [6]
"CC(C)C[C@H](NC(=O)[C@H](CCCCN)NC(=O)[C@H](C)NC(=O)[C@H](C)N)C(=O)N1CCC[C@H]1C(=O)N[C@@H](Cc1ccccc1)C(=O)N[C@@H](CCCNC(=N)N)C(=O)N[C@H]1CSSC[C@@H](C(=O)O)NC(=O)[C@H](Cc2ccccc2)NC(=O)[C@H](C)NC(=O)[C@H](C)NC(=O)[C@H](CCCCN)NC1=O [Kunitzin-OV2] (HELM PEPTIDE1{A.A.K.L.P.F.R.C.K.A.A.F.C}$PEPTIDE1,PEPTIDE1,8:R3-13:R3$$$V2.0)",>128 µM,>128 µM,>128 µM,>128 µM,>128 µM,>128 µM,>128 µM,>128 µM,>128 µM,>128 µM,>128 µM,128 µM,–,–,–,–,–,–
"CC(C)C[C@H](NC(=O)[C@H](CCCCN)NC(=O)[C@H](C)NC(=O)[C@H](C)NC(=O)CNC(=O)CNC(=O)[C@H](CCCNC(=N)N)NC(=O)[C@H](CCCNC(=N)N)NC(=O)[C@H](CCCNC(=N)N)NC(=O)[C@H](CCC(N)=O)NC(=O)[C@H](CCCNC(=N)N)NC(=O)[C@H](CCCNC(=N)N)NC(=O)[C@H](CCCCN)NC(=O)[C@H](CCCCN)NC(=O)[C@@H](N)CCCNC(=N)N)C(=O)N1CCC[C@H]1C(=O)N[C@@H](Cc1ccccc1)C(=O)N[C@@H](CCCNC(=N)N)C(=O)N[C@H]1CSSC[C@@H](C(=O)O)NC(=O)[C@H](Cc2ccccc2)NC(=O)[C@H](C)NC(=O)[C@H](C)NC(=O)[C@H](Cc2ccccc2)NC1=O [TAT-F9-KOV2] (HELM PEPTIDE1{R.K.K.R.R.Q.R.R.R.G.G.A.A.K.L.P.F.R.C.F.A.A.F.C}$PEPTIDE1,PEPTIDE1,19:R3-24:R3$$$V2.0)",>128 µM,>128 µM,>128 µM,>128 µM,8 µM,16 µM,32 µM,8 µM,8 µM,8 µM,8 µM,8 µM,2.2 µM,5.1 µM,9.9 µM,98.1 µM,43.6 µM,44.3 µM
"CC(C)C[C@H](NC(=O)[C@H](CCCCN)NC(=O)[C@H](C)NC(=O)[C@H](C)NC(=O)CNC(=O)CNC(=O)[C@H](CCCNC(=N)N)NC(=O)[C@H](CCCNC(=N)N)NC(=O)[C@H](CCCNC(=N)N)NC(=O)[C@H](CCC(N)=O)NC(=O)[C@H](CCCNC(=N)N)NC(=O)[C@H](CCCNC(=N)N)NC(=O)[C@H](CCCCN)NC(=O)[C@H](CCCCN)NC(=O)[C@@H](N)CCCNC(=N)N)C(=O)N1CCC[C@H]1C(=O)N[C@@H](Cc1ccccc1)C(=O)N[C@@H](CCCNC(=N)N)C(=O)N[C@H]1CSSC[C@@H](C(=O)O)NC(=O)[C@H](Cc2ccccc2)NC(=O)[C@H](C)NC(=O)[C@H](C)NC(=O)[C@H](CCCCN)NC1=O [TAT-KOV2] (HELM PEPTIDE1{R.K.K.R.R.Q.R.R.R.G.G.A.A.K.L.P.F.R.C.K.A.A.F.C}$PEPTIDE1,PEPTIDE1,19:R3-24:R3$$$V2.0)",>128 µM,>128 µM,>128 µM,>128 µM,4 µM,8 µM,16 µM,4 µM,4 µM,4 µM,4 µM,4 µM,45.8 µM,49.2 µM,92.4 µM,166 µM,64.9 µM,96.8 µM
"CC(C)C[C@H](NC(=O)[C@H](CCCCN)NC(=O)[C@H](C)NC(=O)[C@H](C)N)C(=O)N1CCC[C@H]1C(=O)N[C@@H](Cc1ccccc1)C(=O)N[C@@H](CCCNC(=N)N)C(=O)N[C@H]1CSSC[C@@H](C(=O)O)NC(=O)[C@H](Cc2ccccc2)NC(=O)[C@H](C)NC(=O)[C@H](C)NC(=O)[C@H](Cc2ccccc2)NC1=O [F9-KOV2] (HELM PEPTIDE1{A.A.K.L.P.F.R.C.F.A.A.F.C}$PEPTIDE1,PEPTIDE1,8:R3-13:R3$$$V2.0)",>128 µM,>128 µM,>128 µM,>128 µM,>128 µM,>128 µM,>128 µM,>128 µM,>128 µM,>128 µM,>128 µM,>128 µM,–,–,–,–,–,–

# From PMC9501525, “Conjugation of a Cationic Cell-Penetrating Peptide with a Novel Kunitzin-like Trypsin Inhibitor: New Insights for Enhancement of Peptide Bioactivities” (Pharmaceutics, 2022)
